Experiment [1] deals with Prothrombin (Homo sapiens, UniProt P00734). The experiment is described as follows: Inhibition of thrombin.
Experiment [2] in a line: Inhibition of trypsin.

Starred links: 1 amine or outer side, 2 acyl side, 3 side chain; linkers in the order of their positions; H or OH if unused. Positions of bridges follow the written chain, without caps; N, C: chain ends. Non-standard residues stand in square brackets, D forms with d. Residues, ends and D or L forms follow the SMILES beside them. *: point of attachment. Arg(ψCOCO) = N=C(N)NCCC[C@H](N[*:1])C(=O)C(=O)[*:2]; X1 = O=C(/C=C/[C@H](Cc1ccc(O)cc1)N[*:1])[*:2]; aIle = CC[C@@H](C)[C@H](N)C(=O)O; Dap = NC[C@H](N)C(=O)O; PhAc = O=C(Cc1ccccc1)*

For `N=C(N)NCCC[C@@H]1NC(=O)[C@@H]2CCCN2C(=O)[C@@H](NC=O)CNC(=O)/C=C/[C@H](Cc2ccc(O)cc2)NC(=O)[C@@H](Cc2ccccc2)NC(=O)C1=O` [CYCLOTHEONAMIDE A], the IC50 (as a rule, the concentration at which inhibition is half-maximal) is 0.023 µM in experiment [1] and 0.016 µM in experiment [2].

In the case of `CC[C@H](C)[C@H]1NC(=O)C(=O)[C@H](CCCNC(=N)N)NC(=O)[C@@H]2CCCN2C(=O)[C@@H](NC(=O)[C@H](C)NC(=O)c2ccccc2)CNC(=O)/C=C/[C@H](Cc2ccc(O)cc2)NC1=O` [CYCLOTHEONAMIDE E2], the IC50 in experiment [1] amounted to 0.013 µM; in experiment [2], 0.055 µM.

As to `CC[C@H](C)[C@H]1NC(=O)C(=O)[C@H](CCCNC(=N)N)NC(=O)[C@@H]2CCCN2C(=O)[C@@H](NC(=O)[C@H](C)NC(=O)CC(C)C)CNC(=O)/C=C/[C@H](Cc2ccc(O)cc2)NC1=O` [CYCLOTHEONAMIDE E3], the figures for the IC50 in experiment [1] and in experiment [2] were 0.0095 µM and 0.052 µM, respectively.

As for `CC[C@@H](C)[C@@H]1NC(=O)C(=O)[C@H](CCCNC(=N)N)NC(=O)[C@@H]2CCCN2C(=O)[C@@H](NC(=O)[C@H](C)NC(=O)Cc2ccccc2)CNC(=O)/C=C/[C@H](Cc2ccc(O)cc2)NC1=O` [CYCLOTHEONAMIDE E] (PhAc-A[Dap]P[Arg(ψCOCO)][aIle][X1]; lactam 2-C), the IC50 in experiment [1] was found to be 0.0029 µM; in experiment [2], 0.03 µM.

Values taken from ChEMBL document CHEMBL1150890, “Cyclotheonamides E2 and E3, new potent serine protease inhibitors from the marine sponge of the genus Theonella” (J Nat Prod, 1998).
